This is an account of results in US10053451B2, “Heterocyclic estrogen receptor modulators and uses thereof” (priority 2015, dated 2018).

Format in all cases: cell-based
For one assay, the system named is MCF-7 cells. Briefly: Breast Cancer Cell Viability Assay (CellTiter-Glo). To be noted: 5 days of compound exposure; for IC50: Homo sapiens, MCF7, 120 h, read-out: MCF7 viab IC50. Here is the method:
The following day a 10 point, serial 1:5 dilution of each compound was added to the cells in 16 μL at a final concentration ranging from 10-0.00000 μM. After 5 days of compound exposure, 16 μL of CellTiter-GLo (Promega, Madison Wis.) was added to the cells, and the relative luminescence units (RLUs) of each well were determined. CellTiter-Glo added to 32 μL of medium without cells was used to obtain a background value.

A further assay addresses T1, ER-α (Homo sapiens, UniProt P03372).
T1 construct: MCF7 cells were trypsinized and washed twice; endogenous in cells; host or cells: MCF7 breast cancer cells
T1 sequence (P03372 1-595): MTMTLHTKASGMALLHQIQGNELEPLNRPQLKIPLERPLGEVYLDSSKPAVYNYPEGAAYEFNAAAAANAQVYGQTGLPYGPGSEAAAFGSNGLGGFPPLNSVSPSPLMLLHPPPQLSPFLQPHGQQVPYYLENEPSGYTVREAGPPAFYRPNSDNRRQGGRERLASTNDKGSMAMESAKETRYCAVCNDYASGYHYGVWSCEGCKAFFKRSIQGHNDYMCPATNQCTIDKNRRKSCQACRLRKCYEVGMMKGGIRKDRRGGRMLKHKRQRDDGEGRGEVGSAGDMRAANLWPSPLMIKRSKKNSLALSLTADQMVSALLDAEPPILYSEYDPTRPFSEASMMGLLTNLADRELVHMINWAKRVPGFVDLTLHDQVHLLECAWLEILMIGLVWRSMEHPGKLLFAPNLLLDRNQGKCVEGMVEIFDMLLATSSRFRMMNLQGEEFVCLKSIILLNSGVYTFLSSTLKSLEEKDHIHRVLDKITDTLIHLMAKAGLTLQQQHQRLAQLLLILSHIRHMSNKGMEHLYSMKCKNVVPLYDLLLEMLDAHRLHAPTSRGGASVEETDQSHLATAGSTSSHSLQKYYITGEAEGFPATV
Briefly: ER-α In Cell Western Assay. The note with it: MCF7 cells, 4 hours post compound addition, SP1 anti-ER antibody; read-out: ICW (SP1) max response. The procedure: MCF7 cells were trypsinized and washed twice in Phenol Red Free RPMI containing 5% Charcoal Dextran Stripped serum with 20 mM HEPES and NEAA, then adjusted to a concentration of 200,000 cells per mL with the same medium. Next, 16 μL of the cell suspension (3200 cells) was added to each well of a poly-D-lysine coated 384 well plate, and the cells were incubated at 37° C. over 4 days to allow the cells to adhere and grow. […] At 4 hours post compound addition, the cells were fixed by adding 16 μL of 30% formalin to the 32 μL of cells and compound (10% formalin final concentration) for 20 minutes. Cells were then washed twice with PBS Tween 0.1% and then permeabilized in PBS 0.1% Triton (50 μl/well) for additional 15 minutes. The PBS 0.1% triton was decanted, and the cells were washed: LI-COR blocking buffer (50 μL/well) was added, the plate was spun at 3000 rpm, and then the blocking buffer was decanted. Additional LI-COR blocking buffer (50 μL/well) was added, and the cells were incubated overnight at 4° C. The blocking buffer was decanted, and the cells were incubated overnight at 4° C. with SP1 (Thermo Scientific) anti-ER rabbit monoclonal antibody diluted 1:1000 in LI-COR blocking buffer/0.1% Tween-20. Wells which were treated with blocking buffer with Tween but no antibody were used as a background control. Wells were washed twice with PBS Tween 0.1% to remove free SP1 antibodies, and the cells were incubated at room temp for 60-90 minutes in LI-COR goat anti-rabbit IRDye™ 800CW (1:1000) and DRAQ5 DNA dye (1:10000 of 5 mM stock solution) diluted in LI-COR blocking buffer containing 0.1% Tween-20 and 0.01% SDS. Cells were then washed with 0.1% Tween-20/PBS three times. Plates were scanned on a LI-COR Odyssey infrared imaging system. Integrated intensities in the 800 nm channel and 700 nm channel were measured to determine levels of ER-α and DNA respectively. Percent ER levels were determined as follows: (Integrated intensity […] sample/integrated intensity 700 nm sample)/(Integrated intensity 800 nm untreated cells/integrated intensity 700 nm untreated cells)×100=% ER levels.

Assay [1] deals with T2, estrogen receptor alpha (ESR1) (Homo sapiens, UniProt P03372).
T2 construct: MCF7 cells were trypsinized and washed twice; endogenous in cells; host or cells: MCF7 breast cancer cells
T2 sequence (P03372 1-595): T1 sequence (P03372 1-595)
The assay can be described thus: Breast Cancer Cell ERa High Content Fluorescence Imaging Assay (ER-alpha MCF7 Assay). To be noted: MCF7 cells, 4 hours; plateau of maximal effect; DMSO = 0%, 5 nM Fulvestrant = 100% change in ESR1. Here is the method: Cell plates were incubated at 37° C., for 4 hours. Fixation and permeabilization were carried out using a Biotek EL406 plate washer and dispenser as follows. […] Samples were incubated 30 minutes. Well contents was aspirated and 50 uL/well of Phosphate Buffered Saline (PBS) containing 0.5% w/v bovine serum albumen, 0.5% v/v Triton X-100 (Antibody Dilution Buffer) was added to each well. Samples were incubated for 30 minutes. Well contents were aspirated and washed 3 times with 100 uL/well of PBS. Immunofluorescence staining of estrogen receptor alpha (ESR1) was carried out using a Biotek EL406 plate washer and dispenser as follows. […] Samples were incubated for 2 hours at room temperature. Samples were washed 4 times with 100 uL/well of PBS. […] Samples were incubated for 2 hours at room temperature. Samples were washed 3 times with 100 uL/well of PBS using a Biotek EL406. Quantitative fluorescence imaging of ESR1 was carried out using a Cellomics Arrayscan V (Thermo). […] Channel 1 (DNA stain) was used to define the nuclear region (Circ). […] The “Robust Fit” method was used to define the inflexion point of curve (EC50) and the plateau of the maximal effect (Sinf).

Broadly, the IC50 is the midpoint of a concentration-inhibition curve. `CC1=C(c2cccc(O)c2)C(c2ccc(OCCN3CCCC3)cn2)Oc2ccc(O)cc21` (centres unmarked) [Example 6, 3-(3-Hydroxyphenyl)-4-methyl-2-(5-(2-(pyrrolidin-1-yl)ethoxy)pyridin-2-yl)-2H-chromen-6-ol]: in the assay with MCF-7 cells, the “MCF7 viab max response” value was determined as 56.9 and the IC50 came out at 7.08 nM. The Emax at ER-α turned out to be 69.9%.

Turning to `CC1=C(c2cccc(O)c2)C(c2cnc(OCCN3CCCC3)cn2)Oc2ccc(O)cc21` (centres unmarked) [Example 4, 3-(3-Hydroxyphenyl)-4-methyl-2-(5-(2-(pyrrolidin-1-yl)ethoxy)pyrazin-2-yl)-2H-chromen-6-ol], in the assay on MCF-7 cells, the “MCF7 viab max response” value amounted to 49.5 and the IC50 was found to be 0.36 nM. The Emax at ER-α was 70.1%.

Take `CC1=C(c2ccc(O)cc2)C(c2ccc(OC[C@H](C)N3CC[C@@H](C)C3)cn2)Oc2ccc(O)cc21` (stereo partly drawn) [Example 8, 3-(4-Hydroxyphenyl)-4-methyl-2-(5-((S)-2-((R)-3-methylpyrrolidin-1-yl)propoxy)pyridin-2-yl)-2H-chromen-6-ol]: in the assay on MCF-7 cells, the “MCF7 viab max response” value came out at 69.3 and the half-maximal inhibitory concentration (IC50) amounted to 1.36 nM. For the same compound, the Emax at ER-α worked out at 85.9%.

For the compound `CC1=C(c2cccc(O)c2)C(c2ccc(OC[C@H](C)N3CC[C@@H](C)C3)cn2)Oc2ccc(O)cc21` (stereo partly drawn) [Example 5, 3-(3-Hydroxyphenyl)-4-methyl-2-(5-((S)-2-((R)-3-methylpyrrolidin-1-yl)propoxy)pyridin-2-yl)-2H-chromen-6-ol], in the assay on MCF-7 cells, the “MCF7 viab max response” value came out at 64.2 and the IC50 worked out at 1.23 nM. On ER-α, the Emax was 86.7%.

Consider `C[C@]12CC[C@@H]3c4ccc(O)cc4C[C@@H](CCCCCCCCC[S+]([O-])CCCC(F)(F)C(F)(F)F)[C@H]3[C@@H]1CC[C@@H]2O` (some centres unmarked) [fulvestrant, reference compound], for which, in the assay with MCF-7 cells, the “MCF7 viab max response” value was 74.6 and the IC50 came out at 0.56 nM. Further, the Emax on ER-α worked out at 93.6%.

For the compound `CC1=C(c2ccc3[nH]ncc3c2)C(c2ccc(OC[C@H](C)N3CC[C@@H](C)C3)cc2)Oc2ccc(O)cc21` (stereo partly drawn) [Example 12, 3-(1H-Indazol-5-yl)-4-methyl-2-(4-((S)-2-((R)-3-methylpyrrolidin-1-yl)propoxy)phenyl)-2H-chromen-6-ol], in the assay with MCF-7 cells, the “MCF7 viab max response” value was 60.1 and the IC50 was 2.56 nM. In addition, the Emax at ER-α amounted to 74.8%.

`CC1=C(c2cccc(O)c2)C(c2ccc(OC[C@H](C)N3CC[C@@H](C)C3)nc2)Oc2ccc(O)cc21` (stereo partly drawn) [Example 2, 3-(3-Hydroxyphenyl)-4-methyl-2-(6-((S)-2-((R)-3-methylpyrrolidin-1-yl)propoxy)pyridin-3-yl)-2H-chromen-6-ol]: in the assay with MCF-7 cells, the “MCF7 viab max response” value was determined as 56.9 and the half-inhibitory concentration (IC50) was determined as 0.13 nM. The Emax at ER-α worked out at 76.1%.

Take `CC1=C(c2ccc3cn[nH]c3c2)C(c2ccc(OC[C@H](C)N3CC[C@@H](C)C3)cc2)Oc2ccc(O)cc21` (stereo partly drawn) [Example 11, 3-(1H-Indazol-6-yl)-4-methyl-2-(4-((S)-2-((R)-3-methylpyrrolidin-1-yl)propoxy)phenyl)-2H-chromen-6-ol]: in the assay on MCF-7 cells, the “MCF7 viab max response” value is reported as 55.8 and the IC50 came out at 17 nM. Besides, the Emax at ER-α is 74.1%.

As for `CC1=C(c2cc(O)c(F)c(F)c2)C(c2ccc(OC[C@H](C)N3CC[C@@H](C)C3)cn2)Oc2ccc(O)cc21` (stereo partly drawn) [Example 7, 3-(3,4-Difluoro-5-hydroxyphenyl)-4-methyl-2-(5-((S)-2-((R)-3-methylpyrrolidin-1-yl)propoxy)pyridin-2-yl)-2H-chromen-6-ol], in the assay on MCF-7 cells, the “MCF7 viab max response” value amounted to 72.1 and the 50% inhibitory concentration (IC50) came out at 1.29 nM. Further, the Emax at ER-α was 87.1%.

As for `CC1=C(c2cccc(O)c2)C(c2ccc(OC[C@H](C)N3CC[C@@H](C)C3)cc2)Oc2ccc3[nH]ncc3c21` (stereo partly drawn) [Example 14, 3-(9-Methyl-7-(4-((S)-2-((R)-3-methylpyrrolidin-1-yl)propoxy)phenyl)-3,7-dihydropyrano[3,2-e]indazol-8-yl)phenol], in the assay with MCF-7 cells, the “MCF7 viab max response” value is 62.3 and the IC50 was determined as 0.83 nM. The Emax on ER-α turned out to be 77.8%.

Consider `CC1=C(c2cccc(O)c2)C(c2ccc(OCCN3CCCC3)nc2)Oc2ccc(O)cc21` (centres unmarked) [Example 1, 3-(3-Hydroxyphenyl)-4-methyl-2-(6-(2-(pyrrolidin-1-yl)ethoxy)pyridin-3-yl)-2H-chromen-6-ol], for which, in the assay on MCF-7 cells, the “MCF7 viab max response” value worked out at 53.6 and the half-inhibitory concentration (IC50) turned out to be 0.18 nM. Moreover, the Emax at ER-α was determined as 65.9%.

For `CC1=C(c2ccc(O)cc2F)C(c2ccc(OC[C@H](C)N3CC[C@@H](C)C3)cn2)Oc2ccc(O)cc21` (stereo partly drawn) [Example 10, 3-(2-Fluoro-4-hydroxyphenyl)-4-methyl-2-(5-((S)-2-((R)-3-methylpyrrolidin-1-yl)propoxy)pyridin-2-yl)-2H-chromen-6-ol], in the assay with MCF-7 cells, the “MCF7 viab max response” value was found to be 70.9 and the IC50 was 0.74 nM. The Emax on ER-α was 83.4%.

`CC1=C(c2ccc(O)c(F)c2)C(c2ccc(OC[C@H](C)N3CC[C@@H](C)C3)cn2)Oc2ccc(O)cc21` (stereo partly drawn) [Example 9, 3-(3-Fluoro-4-hydroxyphenyl)-4-methyl-2-(5-((S)-2-((R)-3-methylpyrrolidin-1-yl)propoxy)pyridin-2-yl)-2H-chromen-6-ol]: in the assay with MCF-7 cells, the “MCF7 viab max response” value was 71.6 and the concentration for half-maximal inhibition (IC50) is 1.03 nM. Moreover, the Emax at ER-α worked out at 88%.

As for `CC1=C(c2cccc3[nH]ncc23)C(c2ccc(OC[C@H](C)N3CC[C@@H](C)C3)cc2)Oc2ccc(O)cc21` (stereo partly drawn) [Example 13, 3-(1H-Indazol-4-yl)-4-methyl-2-(4-((S)-2-((R)-3-methylpyrrolidin-1-yl)propoxy)phenyl)-2H-chromen-6-ol], in the assay with MCF-7 cells, the “MCF7 viab max response” value was 65.9 and the half-maximal inhibitory concentration (IC50) came to 0.9 nM. Also, the Emax on ER-α was found to be 85.1%.

As for `CC1=C(c2cnc(N)nc2)C(c2ccc(OCCN3CC(CF)C3)cc2)Oc2ccc(O)cc21` (centres unmarked) [Example 39, 3-(2-Amino-pyrimidin-5-yl)-2-{4-[2-(3-fluoromethyl-azetidin-1-yl)-ethoxy]-phenyl}-4-methyl-2H-chromen-6-ol], the “ER-alpha MCF7 Sinf (%)” value in assay [1] came out at 95.4%.

Take `CC1=C(C2=CC(=O)CC2)C(c2ccc(OCCN3CC(CF)C3)cc2)Oc2ccc(O)cc21` (centres unmarked) [Example 45, 3-[2-[4-[2-[3-(fluoromethyl)azetidin-1-yl]ethoxy]phenyl]-6-hydroxy-4-methyl-2H-chromen-3-yl]cyclopent-2-en-1-one]: the “ER-alpha MCF7 Sinf (%)” value in assay [1] is recorded as 96.6%.
